Test results as given in patent US10301357B2, “Therapeutics for the induction of endogenous steroidogenesis and methods associated with their identification” (THE ROYAL INSTITUTION FOR THE ADVANCEMENT OF …, priority 2013, dated 2019).
“Also recorded” adds a separate entry of the source. Square brackets hold non-standard residues; d marks the D form. Peptide text beside a SMILES is read from it. dPhe(4-Cl) = N[C@H](Cc1ccc(Cl)cc1)C(=O)O; d2Nal = N[C@H](Cc1ccc2ccccc2c1)C(=O)O; dCit = NC(=O)NCCC[C@@H](N)C(=O)O; d3Pal = N[C@H](Cc1cccnc1)C(=O)O

How the values were obtained:
[1] = tested on: MA-10 mouse Leydig tumor cells; test: Progesterone production by MA-10 cells after 8-Br-cAMP (RIA); assay type: cell-based; conditions: 10 μM 19-Atriol with TVS167, 8-Br-cAMP 120 min
Protocol: Cell culture, treatments, and steroid measurement. MA-10 mouse Leydig tumor cells were maintained in DMEM/Ham's nutrient mixture F12 (Gibco, Burlington, ON) supplemented with 5% fetal bovine serum, 2.5% hoarse serum, and 1% penicillin and streptomycin at 37° C. and 3.7% CO2. Cells were incubated in serum-free cell culture media supplemented with 1 mM 8-Bromo-cAMP (Enzo Biosciences, Farmingdale, N.Y.) or […] (50 ng/ml) hCG for 15, 30, 60, and 120 min or as indicated. Human NCL-H295R cells were maintained in DMEM/F12 media supplemented with 2.5% Ultroser G (Pall Biospera, Mississauga, ON), 1% penicillin/streptomycin (Invitrogen, Carlsbad, Calif.), and 1% ITS+ Premix (BD Biosciences, Franklin Lakes, N.J.) in a humidified chamber at 37° C. and 5% CO2.
Experiments involving the TV peptides included 1×10^3 MA-10 or NCL-H295R cells, which were initially cultured for 24 hrs. Serum-free media were supplemented with 250 nM TV fusion peptides, and cells were incubated for 90 min after optimization. […]
Progesterone or testosterone levels were measured with specific RIAs in triplicate using commercial anti-sera from rabbit and sheep, respectively (MP Biomedicals, Santa Ana, Calif.). Protein levels in MA-10 cell lysates were determined with the Bradford dye assay (Bio-Rad). LH and corticosterone levels were measured with rat-specific ELISA kits (CUSABIO, Wuhan, China).

[2] = tested on: adult Sprague-Dawley rats; test: Cetrorelix i.p. injection, suppression of T and LH; assay type: in vivo, rat
Protocol: Animals studies. Animals were handled according to protocols approved by the McGill University Animal Care and Use Committees. 60- to 64-day-old male Sprague-Dawley rats were purchased from Charles River, Senneville, QC. Rats were provided standard diets and tap water ad libitum and were maintained in controlled conditions (24° C., 12-h light, 12-h dark schedule). Animals were euthanized, and the testes were either immediately used for organ culture or intratesticular fluid collection, or testes and adrenal glands were snap-frozen for sectioning. Bolus injections with water or indicated doses of TV peptides were performed after administering isofluorane anesthesia. Rats were injected with either water or the indicated dose of TV fusion peptide. When FGIN-1-27 (Sigma-Aldrich, St. Louis, Mo.) was used, 8.5 μg in 50 μl (390 μM) of the compound in 1% DMSO solution containing Tween-20™ was injected into one of the testes of 68-72 day old Sprague-Dawley rats. Animals were incubated in standard conditions for 2 hrs. Surgeries were performed on 60- to 64-day-old rats bolus injection of water or TV peptides. Alzet mini-osmotic pumps releasing 75 ng of filled with water or a TV peptide or water over a course of 24 hrs was surgically implanted in the abdomen. The pumps were connected to a polyethylene catheter tubing (Alzet) and directed to the injected testis. […]

[3] = tested on: Sprague-Dawley rats; test: FGIN-1-27 bolus intratesticular injection, T levels after 2 hrs; assay type: in vivo, rat; conditions: for intratesticular T levels / plasma T levels: 8.5 μg bolus, 2 hrs
Protocol: Animals studies. Animals were handled according to protocols approved by the McGill University Animal Care and Use Committees. 60- to 64-day-old male Sprague-Dawley rats were purchased from Charles River, Senneville, QC. Rats were provided standard diets and tap water ad libitum and were maintained in controlled conditions (24° C., 12-h light, 12-h dark schedule). Animals were euthanized, and the testes were either immediately used for organ culture or intratesticular fluid collection, or testes and adrenal glands were snap-frozen for sectioning. Bolus injections with water or indicated doses of TV peptides were performed after administering isofluorane anesthesia. Rats were injected with either water or the indicated dose of TV fusion peptide. When FGIN-1-27 (Sigma-Aldrich, St. Louis, Mo.) was used, 8.5 μg in 50 μl (390 μM) of the compound in 1% DMSO solution containing Tween-20™ was injected into one of the testes of 68-72 day old Sprague-Dawley rats. Animals were incubated in standard conditions for 2 hrs. Surgeries were performed on 60- to 64-day-old rats bolus injection of water or TV peptides. Alzet mini-osmotic pumps releasing 75 ng of filled with water or a TV peptide or water over a course of 24 hrs was surgically implanted in the abdomen. The pumps were connected to a polyethylene catheter tubing (Alzet) and directed to the injected testis. The pump released 75 ng TV peptide to the testis over a course of 24 hrs at the rate of 1 μl/hour. GnRH antagonist, Cetrorelix™ (Sigma Aldrich) was injected into 59-day-old rats intraperitoneally (i.p.) at 0.4 mg/animal/day for 0-4 days (Horvath et al. 2004). Animal dissection was performed after CO2 anesthesia. Cardiac puncture was used for blood collection, and further centrifugation yielded serum separation. Testes were dissected and either decapsulated for intratesticular fluid collection or snap-frozen for sectioning.
To further assess the link between VDAC1 and TSPO function in vivo, the acute effect of TVS167 was compared to that of a well characterized high affinity TSPO drug ligand, N,N-dihexyl-2-(4-fluorophenyl)indole-3-acetamide (FGIN-1-27) (Perheentupa et al. 2009), in the absence of LH signaling. Sprague-Dawley rats of 68-72 days old were given an i.p. injected of either H2O or 0.4 mg Cetrorelix™ for 0-4 days. On day 4, a bolus intratesticular injection of 8.5 μg FGIN-1-27 or its solvent (control) was given to one testis per animal. To assess the acute effect of this TSPO drug ligand on steroidogenesis intratesticular and circulating T levels were measured after 2 hrs.

C[C@]12CC[C@H]3[C@@H](CC=C4C[C@@H](O)CC[C@@]43CO)[C@@H]1CC[C@@H]2O [19-Atriol]
effect on TVS167-stimulated steroid formation [1]: stimulatory effect of TVS167 on steroid formation was blocked

CC(=O)N[C@H](Cc1ccc2ccccc2c1)C(=O)N[C@H](Cc1ccc(Cl)cc1)C(=O)N[C@H](Cc1cccnc1)C(=O)N[C@@H](CO)C(=O)N[C@@H](Cc1ccc(O)cc1)C(=O)N[C@H](CCCNC(N)=O)C(=O)N[C@@H](CC(C)C)C(=O)N[C@@H](CCCNC(=N)N)C(=O)N1CCC[C@H]1C(=O)N[C@H](C)C(N)=O [Cetrorelix] (Ac-[d2Nal][dPhe(4-Cl)][d3Pal]SY[dCit]LRP[dA]-NH2)
T levels in testes and serum ([2]; 0.4 mg/day i.p. for four days): completely suppressed; also recorded: blocked | LH release ([2]; adult rats): blocked LH release

CCCCCCN(CCCCCC)C(=O)Cc1c(-c2ccc(F)cc2)[nH]c2ccccc12 [FGIN-1-27, N,N-dihexyl-2-(4-fluorophenyl)indole-3-acetamide]
intratesticular T levels ([3]; Cetrorelix-treated rats): significant increase | plasma T levels ([3]; Cetrorelix-treated rats): increased | intratesticular T levels ([3]; control (H2O i.p.) rats): significant increase | plasma T levels ([3]; control (H2O i.p.) rats): increased only in the Cetrorelix-treated animals | acute T formation in vivo compared with TVS167 ([3]; control and Cetrorelix-treated rats): to a lesser extent that TVS167
